The source made the active and inactive calls. How the calls were made is not given here.
What follows are compounds tested against Bcl-2-related protein A1 (Mus musculus) (UniProt Q07440) (assay: Bfl-1 counter-screen inhibitors, SAR follow-up, counter-screen for UBC13 polyubiquitination inhibitor project, biochemical, mouse Bfl-1 (AID 504685)). Conditions: Bfl-1 counterscreen for UBC13 inhibitors.

SMILES | IC50
CN(C)CCCN(C(=O)c1ccc(S(=O)(=O)N2CCCCCC2)cc1)c1nc2ccc(Br)cc2s1 | > 100 µM (inactive)
CCc1ccc2nc(N(CCCN(C)C)C(=O)c3ccc(S(=O)(=O)N4CCc5ccccc5C4)cc3)sc2c1 | > 100 µM (inactive)
COc1ccc2sc(N(CCCN(C)C)C(=O)c3ccc(S(=O)(=O)N4CCc5ccccc5C4)cc3)nc2c1 | > 100 µM (inactive)
O=C(C1CCN(c2ncnc3c2nc2n3CCCCC2)CC1)N1CCN(Cc2ccccc2)CC1 | > 100 µM (inactive)
Cc1ccc2nc(N(CCCN(C)C)C(=O)c3ccc(S(=O)(=O)N4CCc5ccccc5C4)cc3)sc2c1 | > 100 µM (inactive)
CCN(Cc1ccccc1)S(=O)(=O)c1ccc(C(=O)N(CCCN(C)C)c2nc3cc4c(cc3s2)OCO4)cc1 | 57 µM
Cc1cc(C)c2sc(N(CCCN(C)C)C(=O)c3ccc(S(=O)(=O)N4CCc5ccccc5C4)cc3)nc2c1 | > 100 µM (inactive)
O=C(NCCCN1CCN(c2ccccc2)CC1)C1CCCN(c2ncnc3c2nc2n3CCCCC2)C1 (stereo not given) | > 100 µM (inactive)
CCN(Cc1ccccc1)S(=O)(=O)c1ccc(C(=O)N(CCCN(C)C)c2nc3cc4c(cc3s2)OCCO4)cc1 | 84 µM
CCN(Cc1ccccc1)S(=O)(=O)c1ccc(C(=O)N(CCCN(C)C)c2nc3cc(C)cc(C)c3s2)cc1 | > 100 µM (inactive)
Cc1cccc(OCC(O)CN2CCN(CCN3C(=O)c4cccc5cccc(c45)C3=O)CC2)c1C (stereo not given) | > 100 µM (inactive)
O=C(c1ccc(S(=O)(=O)N2CCCC2)cc1)N1CCC(CN2C(=O)c3cccc4cccc(c34)C2=O)CC1 | > 100 µM (inactive)
CC(NC(=O)CCCCCN1C(=O)c2ccccc2C1=O)c1nc(-c2ccccc2)no1 (stereo not given) | > 100 µM (inactive)
O=C(CCCCCN1C(=O)c2ccccc2C1=O)Nc1nc(C2CC2)cs1 | > 100 µM (inactive)
O=C1c2cccc3cccc(c23)C(=O)N1CCN1CCN(CC(O)COc2ccc(C3CCCCC3)cc2)CC1 (stereo not given) | > 100 µM (inactive)
COC(=O)C1=C(NC(=O)CCCCCN2C(=O)c3ccccc3C2=O)SC2CCCC12 (stereo not given) | > 100 µM (inactive)
CN(C)CCCN(C(=O)c1ccc(C(=O)c2ccccc2)cc1)c1nc2cc3c(cc2s1)OCCO3 | 85.3 µM
CCOc1cccc2sc(N(CCCN(C)C)C(=O)c3ccc(S(=O)(=O)N(CC)Cc4ccccc4)cc3)nc12 | 86.6 µM
COc1ccc(CCNC(=O)CCCCCN2C(=O)c3ccccc3C2=O)cc1 | > 100 µM (inactive)
CC1CN(S(=O)(=O)c2ccc(NC(=O)CCCCCN3C(=O)c4ccccc4C3=O)cc2)CC(C)O1 (stereo not given) | > 100 µM (inactive)

SMILES | IC50
CN(C)CCCN(C(=O)c1ccc2c(c1)CCCC2)c1nc2ccc(Cl)cc2s1 | > 100 µM (inactive)
CCCCOC(=O)c1cccc(NC(=O)CCCCCN2C(=O)c3ccccc3C2=O)c1 | > 100 µM (inactive)
CN(C)CCCN(C(=O)c1ccc(S(=O)(=O)N(C)Cc2ccccc2)cc1)c1nc2cc3c(cc2s1)OCO3 | 81 µM
COc1ccc(COCC(O)CN2CCC(CN3C(=O)c4cccc5cccc(c45)C3=O)CC2)cc1OC (stereo not given) | > 100 µM (inactive)
CN(C)CCCn1c(SCC(=O)Nc2nc(-c3cccc(Br)c3)cs2)nc2ccccc2c1=O | 16.9 µM
O=C(NCC1CCN(Cc2ccc(Cl)cc2)CC1)C1CCCN(c2ncnc3c2nc2n3CCCCC2)C1 (stereo not given) | > 100 µM (inactive)
COc1cc2nc(N(CCCN(C)C)C(=O)c3ccc(S(=O)(=O)N4CCc5ccccc5C4)cc3)sc2cc1OC | 69.3 µM
O=C(CCCn1c(=O)c2ccccc2n(Cc2ccc(Cl)cc2)c1=O)NC1CCN(Cc2ccccc2)CC1 | > 100 µM (inactive)
CN(C)CCCN(C(=O)c1ccc(S(=O)(=O)N2CCCCCC2)cc1)c1nc2cc3c(cc2s1)OCCO3 | > 100 µM (inactive)
COC(=O)c1ccc(OCC(O)CN2CCN(CCN3C(=O)c4cccc5cccc(c45)C3=O)CC2)cc1 (stereo not given) | 56.9 µM
O=C1c2cccc3cccc(c23)C(=O)N1CC1CCN(CC(O)COc2ccc3ccccc3c2)CC1 (stereo not given) | 68.5 µM
Cc1c(NC(=O)CCCN2C(=O)c3cccc4cccc(c34)C2=O)c(=O)n(-c2ccccc2)n1C | > 100 µM (inactive)
CC1CCCC(C)N1CCCNC(=O)C1CCCN(c2ncnc3c2nc2n3CCCCC2)C1 (stereo not given) | > 100 µM (inactive)
O=C(CCCCCN1C(=O)c2ccccc2C1=O)NCc1ccccn1 | > 100 µM (inactive)
O=C1c2cccc3cccc(c23)C(=O)N1CCN1CCN(CC(O)COc2ccc3c(c2)OCO3)CC1 (stereo not given) | > 100 µM (inactive)
COc1cc(/C=C/c2cc[n+](C)cc2)ccc1OCC(=O)Nc1ccc(Cl)c(Cl)c1 | 55.3 µM
CC1CCCCN1C(=O)C1CCN(c2ncnc3c2nc2n3CCCCC2)CC1 (stereo not given) | > 100 µM (inactive)
O=C(C1CCN(c2ncnc3c2nc2n3CCCCC2)CC1)N1CCN(c2ccccc2)CC1 | > 100 µM (inactive)
O=C(CCCCCN1C(=O)c2ccccc2C1=O)NCCc1nc2ccccc2[nH]1 | > 100 µM (inactive)
NNC(=O)c1ccc(CN2C(=O)c3cccc4cccc2c34)cc1 | > 100 µM (inactive)

SMILES | IC50
Cc1cccc(C)c1NC(=O)Cn1c(=O)n(CCCC(=O)NC2CCN(Cc3ccccc3)CC2)c(=O)c2ccccc21 | > 100 µM (inactive)
O=C(CCCCCN1C(=O)c2ccccc2C1=O)Nc1ccc(S(=O)(=O)N2CCCCC2)cc1 | > 100 µM (inactive)
O=C(C1CCN(c2ncnc3c2nc2n3CCCCC2)CC1)N1CCOCC1 | > 100 µM (inactive)
CCOc1cccc2sc(N(CCCN(C)C)C(=O)c3ccc(S(=O)(=O)N(C)Cc4ccccc4)cc3)nc12 | > 100 µM (inactive)
O=C(CCCn1c(=O)c2ccccc2n(Cc2ccccc2F)c1=O)NC1CCN(Cc2ccccc2)CC1 | > 100 µM (inactive)
O=C(CCCCCN1C(=O)c2cccc3cccc(c23)C1=O)NCc1cccnc1 | > 100 µM (inactive)
Cc1ccc(NC(=O)C2CCN(c3ncnc4c3nc3n4CCCCC3)CC2)cc1Cl | > 100 µM (inactive)
Cc1cc(C)cc(OCCNC(=O)CCCCCN2C(=O)c3ccccc3C2=O)c1 | > 100 µM (inactive)
CCOc1ccc(NC(=O)Cn2c(=O)n(CCCC(=O)NC3CCN(Cc4ccccc4)CC3)c(=O)c3ccccc32)cc1 | > 100 µM (inactive)
Cc1cc(OCC(O)CN2CCN(CCN3C(=O)c4cccc5cccc(c45)C3=O)CC2)ccc1C(C)C (stereo not given) | > 100 µM (inactive)
O=C(NCC1CCN(Cc2ccccc2F)CC1)C1CCCN(c2ncnc3c2nc2n3CCCCC2)C1 (stereo not given) | > 100 µM (inactive)
CCOc1cccc2sc(N(CCCN(C)C)C(=O)c3ccc(S(=O)(=O)N4CCc5ccccc5C4)cc3)nc12 | > 100 µM (inactive)
O=C(CCCCCN1C(=O)c2ccccc2C1=O)Nc1ccc(S(=O)(=O)Nc2ncccn2)cc1 | > 100 µM (inactive)
COc1ccc(CCNC(=O)CCCCCN2C(=O)c3ccccc3C2=O)cc1OC | > 100 µM (inactive)
Cc1ccc2c(c1)C1CN(C)CCC1N2C(=O)CCCN1C(=O)c2cccc3cccc(c23)C1=O (stereo not given) | > 100 µM (inactive)
COc1ccccc1NC(=S)NC(=O)CCCCCN1C(=O)c2ccccc2C1=O | > 100 µM (inactive)
COc1ccc(-c2oc3ncnc(N)c3c2-c2ccccc2)cc1 | > 100 µM (inactive)
O=C(NCC1CCN(Cc2cccc(Cl)c2)CC1)C1CCCN(c2ncnc3c2nc2n3CCCCC2)C1 (stereo not given) | > 100 µM (inactive)
O=C(Nc1ccc(F)c(Cl)c1)C1CCN(c2ncnc3c2nc2n3CCCCC2)CC1 | > 100 µM (inactive)
O=C(CCCCCN1C(=O)c2ccccc2C1=O)NCc1ccccc1 | > 100 µM (inactive)
